Measurements reported in ChEMBL document CHEMBL3124838, “Discovery of 6-aryl-azabenzimidazoles that inhibit the TBK1/IKK-ε kinases” (Bioorg Med Chem Lett, 2014).

Assays:
[1] = biological target: Tyrosine-protein kinase ABL2 (Homo sapiens) (UniProt P42684); assay: Inhibition of human ARG assessed as residual activity at 1 uM relative to control
[2] = biological target: Glycogen synthase kinase-3 alpha (Homo sapiens) (UniProt P49840); assay: Inhibition of human GSK3alpha assessed as residual activity at 1 uM relative to control
[3] = biological target: Fibroblast growth factor receptor 1 (Homo sapiens) (UniProt P11362); assay: Inhibition of human FGFR1 assessed as residual activity at 1 uM relative to control
[4] = biological target: CDK2/Cyclin A2 (Homo sapiens) (UniProt P24941+P20248); assay: Inhibition of human CDK2/cyclin A assessed as residual activity at 1 uM relative to control; format: protein-complex assay
[5] = biological target: Serine/threonine-protein kinase 10 (Homo sapiens) (UniProt O94804); assay: Inhibition of human LOK assessed as residual activity at 1 uM relative to control
[6] = biological target: Serine/threonine-protein kinase MARK2 (Homo sapiens) (UniProt Q7KZI7); assay: Inhibition of human PAR-1Balpha assessed as residual activity at 1 uM relative to control
[7] = biological target: Serine/threonine-protein kinase PAK 5 (Homo sapiens) (UniProt Q9P286); assay: Inhibition of human PAK5 assessed as residual activity at 1 uM relative to control
[8] = biological target: Phosphatidylinositol 4-phosphate 5-kinase type-1 gamma (Homo sapiens) (UniProt O60331); assay: Inhibition of human PIP5K1gamma assessed as residual activity at 1 uM relative to control
[9] = biological target: Proto-oncogene tyrosine-protein kinase ROS (Homo sapiens) (UniProt P08922); assay: Inhibition of human ROS assessed as residual activity at 1 uM relative to control
[10] = biological target: Insulin receptor-related protein (Homo sapiens) (UniProt P14616); assay: Inhibition of human IRR assessed as residual activity at 1 uM relative to control
[11] = biological target: T1, Serine/threonine-protein kinase STK11 (Homo sapiens) (UniProt Q15831); assay: Inhibition of human LKB1 assessed as residual activity at 1 uM relative to control
T1 sequence (whole entry): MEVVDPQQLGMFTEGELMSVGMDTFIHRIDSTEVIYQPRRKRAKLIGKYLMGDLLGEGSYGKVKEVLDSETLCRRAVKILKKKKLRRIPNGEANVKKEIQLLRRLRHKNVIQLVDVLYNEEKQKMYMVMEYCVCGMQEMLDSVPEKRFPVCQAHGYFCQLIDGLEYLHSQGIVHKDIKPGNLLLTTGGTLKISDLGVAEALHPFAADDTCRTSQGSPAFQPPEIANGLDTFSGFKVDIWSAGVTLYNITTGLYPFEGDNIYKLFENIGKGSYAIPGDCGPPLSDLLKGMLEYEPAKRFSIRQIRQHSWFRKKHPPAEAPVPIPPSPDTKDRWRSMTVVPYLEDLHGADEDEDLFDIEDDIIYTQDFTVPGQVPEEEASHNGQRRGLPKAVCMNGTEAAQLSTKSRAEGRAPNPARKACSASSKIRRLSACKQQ

[12] = biological target: T2, Serine/threonine-protein kinase Nek2 (Homo sapiens) (UniProt P51955); assay: Inhibition of human NEK2 assessed as residual activity at 1 uM relative to control
T2 sequence (whole entry): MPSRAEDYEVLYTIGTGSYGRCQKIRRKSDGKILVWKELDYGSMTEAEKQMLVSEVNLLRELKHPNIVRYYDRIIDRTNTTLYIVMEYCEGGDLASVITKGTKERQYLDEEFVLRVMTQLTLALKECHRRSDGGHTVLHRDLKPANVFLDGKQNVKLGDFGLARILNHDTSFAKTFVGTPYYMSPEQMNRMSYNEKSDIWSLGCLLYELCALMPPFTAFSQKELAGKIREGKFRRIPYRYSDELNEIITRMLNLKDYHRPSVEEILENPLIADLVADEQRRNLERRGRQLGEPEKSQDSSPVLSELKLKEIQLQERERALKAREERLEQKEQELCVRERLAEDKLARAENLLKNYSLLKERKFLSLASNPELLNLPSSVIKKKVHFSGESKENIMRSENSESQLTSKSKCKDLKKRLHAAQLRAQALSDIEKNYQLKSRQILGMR

[13] = biological target: Hepatocyte growth factor receptor (Homo sapiens) (UniProt P08581); assay: Inhibition of human MET assessed as residual activity at 1 uM relative to control
[14] = biological target: T3, Serine/threonine-protein kinase TBK1 (Homo sapiens, UniProt Q9UHD2); assay: Inhibition of recombinant full-length TBK1 (unknown origin) using CK1tide as substrate by microfluidic mobility shift assay
T3 sequence (Q9UHD2 whole entry): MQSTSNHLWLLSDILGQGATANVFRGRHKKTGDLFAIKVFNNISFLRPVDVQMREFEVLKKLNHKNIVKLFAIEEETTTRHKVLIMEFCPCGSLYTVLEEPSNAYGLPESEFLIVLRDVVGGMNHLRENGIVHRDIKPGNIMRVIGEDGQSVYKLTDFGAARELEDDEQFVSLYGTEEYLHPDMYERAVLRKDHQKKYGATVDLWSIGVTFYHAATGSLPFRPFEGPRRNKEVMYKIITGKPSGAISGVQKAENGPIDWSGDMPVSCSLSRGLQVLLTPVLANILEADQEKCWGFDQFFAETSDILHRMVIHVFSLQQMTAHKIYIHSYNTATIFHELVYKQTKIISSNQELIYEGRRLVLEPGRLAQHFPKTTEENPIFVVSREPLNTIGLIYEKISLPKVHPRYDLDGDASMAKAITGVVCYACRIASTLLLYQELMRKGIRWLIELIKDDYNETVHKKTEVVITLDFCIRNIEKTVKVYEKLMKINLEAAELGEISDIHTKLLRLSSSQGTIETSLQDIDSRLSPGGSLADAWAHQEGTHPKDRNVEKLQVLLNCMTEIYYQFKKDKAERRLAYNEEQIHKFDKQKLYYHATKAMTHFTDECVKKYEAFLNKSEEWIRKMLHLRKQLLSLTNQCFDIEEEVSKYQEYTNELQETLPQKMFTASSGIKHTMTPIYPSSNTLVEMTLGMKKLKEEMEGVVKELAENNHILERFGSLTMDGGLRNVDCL

Insulin receptor-related protein (Homo sapiens), sequence (P14616 27-742 limits assumed): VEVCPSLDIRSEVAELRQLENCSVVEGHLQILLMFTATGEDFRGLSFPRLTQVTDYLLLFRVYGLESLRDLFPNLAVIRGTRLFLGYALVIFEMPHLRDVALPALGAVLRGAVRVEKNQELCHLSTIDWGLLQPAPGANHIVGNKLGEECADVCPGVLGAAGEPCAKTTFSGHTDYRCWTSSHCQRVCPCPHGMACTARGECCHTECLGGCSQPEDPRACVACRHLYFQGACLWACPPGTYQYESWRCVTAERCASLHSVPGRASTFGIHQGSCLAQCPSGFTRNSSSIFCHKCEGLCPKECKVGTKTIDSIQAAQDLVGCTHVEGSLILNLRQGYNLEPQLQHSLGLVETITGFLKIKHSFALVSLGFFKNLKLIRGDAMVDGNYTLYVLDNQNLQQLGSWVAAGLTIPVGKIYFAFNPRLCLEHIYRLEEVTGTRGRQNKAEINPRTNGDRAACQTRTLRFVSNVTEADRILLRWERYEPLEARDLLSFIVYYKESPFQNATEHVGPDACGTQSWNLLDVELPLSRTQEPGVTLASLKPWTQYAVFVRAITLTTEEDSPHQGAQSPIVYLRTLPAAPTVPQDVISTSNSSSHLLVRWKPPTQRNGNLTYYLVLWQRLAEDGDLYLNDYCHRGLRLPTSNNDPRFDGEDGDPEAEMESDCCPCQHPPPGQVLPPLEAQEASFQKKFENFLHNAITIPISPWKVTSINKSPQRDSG
Insulin receptor-related protein (Homo sapiens), sequence (P14616 747-1297 limits assumed): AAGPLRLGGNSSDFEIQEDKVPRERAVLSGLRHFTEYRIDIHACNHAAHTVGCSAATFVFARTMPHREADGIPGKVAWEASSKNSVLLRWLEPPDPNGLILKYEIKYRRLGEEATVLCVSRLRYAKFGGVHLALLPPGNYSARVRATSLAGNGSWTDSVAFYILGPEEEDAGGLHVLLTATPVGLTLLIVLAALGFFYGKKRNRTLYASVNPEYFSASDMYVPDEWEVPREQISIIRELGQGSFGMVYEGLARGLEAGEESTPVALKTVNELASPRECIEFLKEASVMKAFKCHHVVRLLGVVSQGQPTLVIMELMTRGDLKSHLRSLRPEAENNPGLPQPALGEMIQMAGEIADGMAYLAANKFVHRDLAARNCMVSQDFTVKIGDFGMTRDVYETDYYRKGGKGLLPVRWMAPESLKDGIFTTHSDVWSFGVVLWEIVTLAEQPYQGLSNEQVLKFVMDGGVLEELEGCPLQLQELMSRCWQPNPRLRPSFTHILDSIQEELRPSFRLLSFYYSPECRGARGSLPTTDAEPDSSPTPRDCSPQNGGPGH
Hepatocyte growth factor receptor (Homo sapiens), sequence (P08581 whole entry): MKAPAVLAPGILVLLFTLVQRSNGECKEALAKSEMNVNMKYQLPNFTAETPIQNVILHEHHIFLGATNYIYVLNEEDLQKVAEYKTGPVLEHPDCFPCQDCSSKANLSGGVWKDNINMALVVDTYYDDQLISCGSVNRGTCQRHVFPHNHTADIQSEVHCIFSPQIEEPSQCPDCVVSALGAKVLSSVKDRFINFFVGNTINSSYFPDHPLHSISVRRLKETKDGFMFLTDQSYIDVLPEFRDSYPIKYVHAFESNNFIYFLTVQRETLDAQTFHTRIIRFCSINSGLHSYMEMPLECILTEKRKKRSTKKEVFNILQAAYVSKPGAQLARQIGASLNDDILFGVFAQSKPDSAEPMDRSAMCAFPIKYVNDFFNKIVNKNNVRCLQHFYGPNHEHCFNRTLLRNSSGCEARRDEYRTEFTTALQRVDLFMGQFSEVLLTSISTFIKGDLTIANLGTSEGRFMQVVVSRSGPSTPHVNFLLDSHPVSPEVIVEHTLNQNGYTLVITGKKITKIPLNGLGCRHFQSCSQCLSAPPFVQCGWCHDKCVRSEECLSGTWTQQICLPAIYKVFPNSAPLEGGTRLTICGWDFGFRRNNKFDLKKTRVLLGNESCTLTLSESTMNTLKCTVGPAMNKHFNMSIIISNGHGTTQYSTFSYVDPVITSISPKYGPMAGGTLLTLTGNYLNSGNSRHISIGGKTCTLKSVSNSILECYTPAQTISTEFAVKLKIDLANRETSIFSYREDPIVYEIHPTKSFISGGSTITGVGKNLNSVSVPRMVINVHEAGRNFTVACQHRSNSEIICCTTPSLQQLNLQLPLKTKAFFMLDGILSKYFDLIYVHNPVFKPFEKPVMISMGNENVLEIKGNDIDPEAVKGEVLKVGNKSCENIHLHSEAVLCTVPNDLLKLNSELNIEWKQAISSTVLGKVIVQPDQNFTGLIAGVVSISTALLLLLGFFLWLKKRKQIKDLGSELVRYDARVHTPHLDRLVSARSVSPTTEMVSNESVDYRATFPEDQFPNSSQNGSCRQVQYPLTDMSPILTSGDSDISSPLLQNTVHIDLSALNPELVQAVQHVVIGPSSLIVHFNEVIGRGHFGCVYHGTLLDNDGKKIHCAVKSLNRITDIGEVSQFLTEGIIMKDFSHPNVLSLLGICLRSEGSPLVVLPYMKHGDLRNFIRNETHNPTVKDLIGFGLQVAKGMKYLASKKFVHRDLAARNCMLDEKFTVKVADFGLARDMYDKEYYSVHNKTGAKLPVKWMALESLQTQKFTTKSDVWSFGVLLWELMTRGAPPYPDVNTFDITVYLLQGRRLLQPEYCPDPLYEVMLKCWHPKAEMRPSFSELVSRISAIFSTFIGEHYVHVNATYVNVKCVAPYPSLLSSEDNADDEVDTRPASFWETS
Serine/threonine-protein kinase PAK 5 (Homo sapiens), sequence (Q9P286 whole entry, looked up): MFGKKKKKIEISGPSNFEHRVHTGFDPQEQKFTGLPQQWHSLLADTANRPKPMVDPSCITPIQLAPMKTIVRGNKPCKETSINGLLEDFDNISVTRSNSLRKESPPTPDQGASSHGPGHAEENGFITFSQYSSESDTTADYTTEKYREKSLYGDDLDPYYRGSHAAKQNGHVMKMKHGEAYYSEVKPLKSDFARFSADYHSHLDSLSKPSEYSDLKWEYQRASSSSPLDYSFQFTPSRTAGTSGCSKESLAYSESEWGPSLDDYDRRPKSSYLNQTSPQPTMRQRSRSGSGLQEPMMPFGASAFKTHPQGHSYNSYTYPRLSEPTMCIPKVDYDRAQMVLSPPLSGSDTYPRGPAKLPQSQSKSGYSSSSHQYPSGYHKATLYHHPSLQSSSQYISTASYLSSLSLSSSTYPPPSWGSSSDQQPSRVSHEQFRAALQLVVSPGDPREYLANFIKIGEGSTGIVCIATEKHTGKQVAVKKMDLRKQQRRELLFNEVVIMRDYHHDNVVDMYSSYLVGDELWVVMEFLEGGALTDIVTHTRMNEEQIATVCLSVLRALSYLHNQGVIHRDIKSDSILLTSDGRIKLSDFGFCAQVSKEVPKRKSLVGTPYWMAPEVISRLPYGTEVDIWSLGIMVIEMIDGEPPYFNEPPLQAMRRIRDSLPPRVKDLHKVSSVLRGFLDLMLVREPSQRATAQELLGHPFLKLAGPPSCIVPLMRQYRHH
Serine/threonine-protein kinase 10 (Homo sapiens), sequence (O94804 whole entry, looked up): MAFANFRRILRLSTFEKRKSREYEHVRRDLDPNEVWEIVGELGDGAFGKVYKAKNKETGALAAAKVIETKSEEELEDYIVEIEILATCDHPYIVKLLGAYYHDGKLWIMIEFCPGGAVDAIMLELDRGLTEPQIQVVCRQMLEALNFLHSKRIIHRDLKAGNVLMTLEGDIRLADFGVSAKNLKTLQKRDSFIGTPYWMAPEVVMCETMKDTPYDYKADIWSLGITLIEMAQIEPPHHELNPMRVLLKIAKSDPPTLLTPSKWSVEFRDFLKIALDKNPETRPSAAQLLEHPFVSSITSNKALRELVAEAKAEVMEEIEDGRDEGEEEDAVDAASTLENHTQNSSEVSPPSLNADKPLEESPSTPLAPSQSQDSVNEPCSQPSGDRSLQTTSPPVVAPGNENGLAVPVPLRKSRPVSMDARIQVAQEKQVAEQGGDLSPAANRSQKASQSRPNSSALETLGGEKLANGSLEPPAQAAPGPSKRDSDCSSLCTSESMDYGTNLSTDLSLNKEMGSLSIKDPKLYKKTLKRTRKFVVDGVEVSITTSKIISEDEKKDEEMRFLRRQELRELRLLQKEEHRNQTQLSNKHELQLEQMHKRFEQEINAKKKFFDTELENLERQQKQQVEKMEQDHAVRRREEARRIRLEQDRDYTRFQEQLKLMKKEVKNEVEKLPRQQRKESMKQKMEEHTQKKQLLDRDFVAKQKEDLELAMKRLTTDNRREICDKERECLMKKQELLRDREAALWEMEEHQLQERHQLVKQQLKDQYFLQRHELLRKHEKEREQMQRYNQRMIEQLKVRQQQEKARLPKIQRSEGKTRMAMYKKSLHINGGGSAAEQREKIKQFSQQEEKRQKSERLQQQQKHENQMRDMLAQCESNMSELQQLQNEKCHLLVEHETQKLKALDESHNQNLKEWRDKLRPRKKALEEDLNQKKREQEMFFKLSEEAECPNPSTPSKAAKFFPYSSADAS
Glycogen synthase kinase-3 alpha (Homo sapiens), sequence (P49840 2-483 limits assumed): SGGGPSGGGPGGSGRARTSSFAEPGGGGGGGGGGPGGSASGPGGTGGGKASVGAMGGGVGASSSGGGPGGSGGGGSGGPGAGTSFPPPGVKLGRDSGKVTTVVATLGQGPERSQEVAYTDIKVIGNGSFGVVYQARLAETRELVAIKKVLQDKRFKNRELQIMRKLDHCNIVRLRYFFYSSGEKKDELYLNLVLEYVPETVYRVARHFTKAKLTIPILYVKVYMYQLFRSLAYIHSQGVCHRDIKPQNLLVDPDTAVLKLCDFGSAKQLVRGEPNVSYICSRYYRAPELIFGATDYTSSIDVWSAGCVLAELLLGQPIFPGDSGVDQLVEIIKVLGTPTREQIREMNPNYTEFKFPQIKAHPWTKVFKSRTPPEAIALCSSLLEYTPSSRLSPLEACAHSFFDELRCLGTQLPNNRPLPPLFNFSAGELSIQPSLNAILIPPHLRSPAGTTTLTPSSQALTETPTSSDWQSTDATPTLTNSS

Activity [1] [%] | Activity [2] [%] | Activity [3] [%] | Activity [4] [%] | Activity [5] [%] | Activity [6] [%] | Activity [7] [%] | Activity [8] [%] | Activity [9] [%] | Activity [10] [%] | Activity [11] [%] | Activity [12] [%] | Activity [13] [%] | IC50 [14] [µM] | SMILES
38 | 92 | 70 | 103 | 100 | 52 | 97 | 88 | 93 | 92 | 92 | 120 | 107 | 0.077 | COc1ccc(-c2nc3cc(-c4csc(C(=O)NCC(C)C)c4)cnc3[nH]2)cc1
52 | 102 | 91 | 92 | 97 | 54 | 86 | 93 | 82 | 80 | 97 | 97 | 111 | 0.143 | COc1ccc(-c2nc3cc(-c4csc(C(=O)NCCC(C)C)c4)cnc3[nH]2)cc1
60 | 95 | 94 | 98 | 102 | 67 | 94 | 86 | 81 | 70 | 81 | 111 | 114 | 0.084 | COc1ccc(-c2nc3cc(-c4csc(C(=O)NCC(C)(C)C)c4)cnc3[nH]2)cc1
